Paper PMC4988493 (Nature, 2015)

Molecular target: UbiX (Pseudomonas aeruginosa, UniProt Q9HX08)
Assay: crystal structure
Type: binding
Details: complex with DMAP

Chain of UbiX (Q9HX08 whole entry): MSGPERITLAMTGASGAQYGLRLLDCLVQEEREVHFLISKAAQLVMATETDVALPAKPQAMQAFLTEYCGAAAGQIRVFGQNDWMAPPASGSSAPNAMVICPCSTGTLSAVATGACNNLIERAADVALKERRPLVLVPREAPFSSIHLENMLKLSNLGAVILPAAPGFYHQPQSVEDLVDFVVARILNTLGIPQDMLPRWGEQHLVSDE

For Cc1cc2nc3c(=O)[nH]c(=O)nc-3n(C[C@H](O)[C@H](O)[C@H](O)COP(=O)(O)O)c2cc1C [FMN], the crystal structure was “crystal structure of P. aeruginosa UbiX in complex with oxidized FMN and DMAP”.
